Activity calls are given as the source filed them.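 The calls were made as follows: active = viability at the highest tested concentration below 50%; inactive = the rest.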

System in the first experiment: not listed separately
Kind of experiment: viability loss, cell-based, CellTiter-Glo luminescence, cherry picks 01-02, cytotoxicity control for ABCB6 inhibitor project, dose response (AID 651655). The note with it: K562 vector control cells viability, CellTiter-Glo, 18 h; at 100 µM (top of the series).
As a reminder, the viability is a per cent measure of how many cells are alive, often set against a control. In the case of `CCN(CC)S(=O)(=O)c1cccc(-n2c(O)c(C=Nc3ccccc3C(=O)O)c3ccccc3c2=O)c1`, the viability was 79% (inactive).

`C[N+](C)(C)CC1CCCC(C[N+](C)(C)C)C1=O` (stereo not given): the viability is 67.5% (inactive).

As for `Cc1cccc(CS(=O)(=O)c2ncc(Cl)c(C(=O)Nc3ccc(F)cc3)n2)c1`, the viability is 90.2% (inactive).

For `Cc1ccccc1CS(=O)(=O)c1ncc(Cl)c(C(=O)Nc2ccc(F)cc2)n1`, the viability is 61.6% (inactive).

`CCCc1nnc(NC(=O)c2nc(S(=O)(=O)Cc3cccc(C)c3)ncc2Cl)s1`: the viability was 71.2% (inactive).

Take `Cc1ccc(NC(=O)c2nc(S(=O)(=O)Cc3ccccc3)ncc2Cl)cc1`: the viability is 80.4% (inactive).

Consider `O=C(Nc1ccc(F)cc1)c1nc(S(=O)(=O)Cc2ccccc2)ncc1Cl`, for which the viability is 81.6% (inactive).

On to `COC(=O)c1ccc(NC(=O)c2nc(S(=O)(=O)Cc3cccc(C)c3)ncc2Cl)cc1`, for which the viability was 82.7% (inactive).

The subject of the next experiment is K562 vector control cells viability, CellTiter-Glo, 18 h. Described as above.
Details: not given
By EC50 is commonly meant the concentration at which the effect is half-maximal. For the compound `CC(=O)Nc1ccc(NC(=O)c2nc(S(=O)(=O)Cc3ccccc3)ncc2Cl)cc1`, the EC50 is 911 nM.

On to `Cc1nnc(NC(=O)c2nc(S(=O)(=O)Cc3ccccc3)ncc2Cl)s1`, for which the EC50 is 2050 nM.

With `Cc1ccc(CS(=O)(=O)c2ncc(Cl)c(C(=O)Nc3nnc(C(C)C)s3)n2)cc1`, the EC50 was 596 nM.

Turning to `CCc1ccc(NC(=O)c2nc(S(=O)(=O)Cc3ccccc3)ncc2Cl)cc1`, the EC50 was 390 nM.

Consider `Cc1cccc(C)c1NC(=O)c1nc(S(=O)(=O)Cc2ccccc2)ncc1Cl`, for which the EC50 was 979 nM.

For the compound `Cc1cccc(CS(=O)(=O)c2ncc(Cl)c(C(=O)Nc3nnc(C(C)C)s3)n2)c1`, the EC50 is 627 nM.

For the compound `Cc1ccc(NC(=O)c2nc(S(=O)(=O)Cc3ccccc3C)ncc2Cl)cc1C`, the EC50 is 758 nM.

As to `CCOC(=O)c1ccc(NC(=O)c2nc(S(=O)(=O)Cc3ccccc3)ncc2Cl)cc1`, the EC50 was 1930 nM.

For `Cc1ccc(CS(=O)(=O)c2ncc(Cl)c(C(=O)Nc3ccc(OC(F)F)cc3)n2)cc1`, the concentration giving a half-maximal response (EC50) was 741 nM.

With `CCOc1ccccc1NC(=O)c1nc(S(=O)(=O)Cc2cccc(C)c2)ncc1Cl`, the EC50 was 715 nM.

Regarding `CC(=O)Nc1ccc(NC(=O)c2nc(S(=O)(=O)Cc3cccc(C)c3)ncc2Cl)cc1`, the EC50 is 660 nM.

Turning to `CCOc1ccccc1NC(=O)c1nc(S(=O)(=O)Cc2ccccc2)ncc1Cl`, the EC50 is 2200 nM.
